The assay addresses T1, KGA_H519Q (Homo sapiens, UniProt O94925, H519Q).
T1 construct: a KGA cDNA fragment of 1644 bp (residues Leu123-Leu669); His-tag (N); made in house; host or cells: Escherichia coli
T1 sequence (O94925 123-669 H519Q): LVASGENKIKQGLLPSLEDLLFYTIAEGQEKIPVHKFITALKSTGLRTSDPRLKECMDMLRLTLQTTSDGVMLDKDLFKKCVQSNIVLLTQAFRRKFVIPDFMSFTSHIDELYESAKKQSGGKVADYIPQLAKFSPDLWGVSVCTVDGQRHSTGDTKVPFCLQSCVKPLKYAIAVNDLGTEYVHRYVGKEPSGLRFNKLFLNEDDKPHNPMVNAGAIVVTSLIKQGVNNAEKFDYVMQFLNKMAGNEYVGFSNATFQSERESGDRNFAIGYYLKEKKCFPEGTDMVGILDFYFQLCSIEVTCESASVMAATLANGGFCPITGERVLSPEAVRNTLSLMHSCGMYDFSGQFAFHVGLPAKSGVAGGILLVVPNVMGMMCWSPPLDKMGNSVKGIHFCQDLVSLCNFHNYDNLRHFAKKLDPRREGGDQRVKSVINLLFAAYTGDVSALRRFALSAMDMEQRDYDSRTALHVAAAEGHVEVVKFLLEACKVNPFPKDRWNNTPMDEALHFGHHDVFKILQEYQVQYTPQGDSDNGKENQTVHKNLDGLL
Put plainly: Glutaminase activity assay, KGA mutant H519Q. The assay is classed as biochemical. As for the experimental part:
Human glutaminase activity was measured using a two-step assay as described previously. A microtiter assay format was used to facilitate the collection of multiple data points. Typically, 10 μl of compound, which was dissolved in DMSO, was added to 80 μl of an initial assay mix (0.1 mM hKGA, 0.2 mM EDTA and 50 mM Tris/acetate, pH 8.6). Samples were incubated at 25°C for 10 min and then 10 μl of 200 mM glutamine were added to the reaction mix. After adding glutamine, the reactions were incubated at 37°C for 60 min and then quenched by the addition of 10 μl of 0.6 M HCl. Subsequently, 100 μl of a second reaction mixture (3.7 units of purified bovine liver glutamate dehydrogenase, 160 mM Tris/acetate [pH 9.4], 400 mM hydrazine, 5 mM ADP and 2 mM NAD^+) was added to the stopped first reaction mixture and incubated for 30 min at 25°C. The absorbance at 340 nm was measured using a Wallac Victor2V plate reader (PerkinElmer), fitted with a 340 nm excitation filter. Sample absorbance was measured against a blank, containing no human glutaminase.
Site-directed mutagenesis was performed on the pET28a(+)-GAB or pET28a(+)-KGA plasmids using PfuUltra II Fusion HS DNA polymerase (Agilent Technologies) to create the GAB and KGA mutants. […] The sequence alignment was compared with crystal structure of the GAC (PDB code: 3UO9) and the resulting model of GAB was analyzed using the Swiss-PDB server. […]

Each structure is given as a SMILES string.

Usually IC50 stands for the concentration that gives 50% inhibition. A higher IC50 goes with weaker potency in that assay. `CCCCCCCCCCCCCC(CC1=CC(=O)C=C(OC)C1=O)OC(C)=O` (stereo not shown) [AV-1] had a half-maximal inhibitory concentration (IC50) of 1670 ± 120 nM.

The record behind these values is paper PMC4171615, “Discovery of selective inhibitors of Glutaminase-2, which inhibit mTORC1, activate autophagy and inhibit proliferation in cancer cells” (Oncotarget, 2014).
